From the NIST ThermoML archive (doi:10.1021/je9000872)
± gives the expanded uncertainty stated by the source.

Test: molar enthalpy of vaporization or sublimation
Conditions: 298.15 K, Calvet microcalorimetry

molar enthalpy (Liquid) [kcal/mol]	molar enthalpy (Crystal) [kcal/mol]	SMILES
12.5 ± 0.382	–	Oc1ccccc1F [2-fluorophenol]
14.4 ± 0.43	–	Oc1cccc(F)c1 [3-fluorophenol]
–	17.7 ± 0.669	Oc1ccc(F)cc1 [4-fluorophenol]
